From patent publication US20210187008A1, “USE OF ACANTHOPANAX TRIFOLIATUS POLYSACCHARIDE ATP1-1 IN PREPARATION OF DRUGS FOR TREATMENT OF DIABETES” (GUANGDONG PHARMACEUTICAL UNIVERSITY, priority 2019, published 2021)

Key:
Assay type in all cases: in vivo
[1] = test system: STZ-induced diabetic mice; experiment: Body weight of STZ-induced diabetic mice; conditions: for Body Weight: dimethylbiguanide 185 mg/kg intragastric
Description: (§1) After 70 mice were adaptively fed for 3 days, they were fasted and kept feeding water for 12 hours, 0.1 mol/L STZ-streptozotocin solution was injected intraperitoneally, the injection volume was 60 mg/kg, and the injection was continued for 5 days. Seven days after the injection, the mice were fasted and kept feeding water for 8 hours, and the tail was cut to collect blood and the fasting blood glucose of the mice was measured. The model was considered as a successful model with a blood glucose concentration greater than 16.5 mmol/L. Diabetic mice successfully modeled (50) were randomly divided into 5 groups, namely: a high glucose model group, a dimethylbiguanid group (185 mg/kg), ATP1-1 high dose group (140 mg/kg), ATP1-1 medium dose group (70 mg/kg), ATP1-1 low dose group (35 mg/kg), 10 mice in each group, and 10 normal mice were randomly selected as a normal control group. All groups were administrated by intragastric administration, and the normal control group and high glucose model group were administrated the same amount of distilled water. after the successful modelling, the body weight, diet and water consumption and blood glucose of the mice before administration and 1, 2, 3, 4, 5, and 6 weeks after administration were measured, and the glucose tolerance was measured at the end of the experiment.

diabetic mice [2] = experiment: Diet and water consumption of diabetic mice; conditions: dimethylbiguanide 185 mg/kg, during the administration period, P<0.01
Description: as §1

diabetic mice [3] = experiment: Fasting blood glucose in diabetic mice; conditions: dimethylbiguanide 185 mg/kg
Description: as §1

Q: With `CN(C)C(=N)NC(=N)N` [Dimethylbiguanide, dimethylbiguanide] as the molecule, how does the “Body Weight” value ([1]; Week 0 (before administration), x±s, n=8) read?
A: 19.48 ± .78 g

Q: And the “Body Weight” value ([1]; Week 1)?
A: 19.72 ± .77 g

Q: And the “Body Weight” value ([1]; Week 2)?
A: 20.40 ± .78 g

Q: What about the “Body Weight” value ([1]; Week 3) of the same molecule?
A: 20.94 ± .73 g

Q: And the “Body Weight” value ([1]; Week 4)?
A: 21.49 ± .84 g

Q: What about the “Body Weight” value ([1]; Week 5) of the same molecule?
A: 21.70 ± .90 g

Q: And the “Body Weight” value ([1]; Week 6)?
A: 21.89 ± .89 g

Q: And the “body weight compared with high glucose model group” value ([1]; dimethylbiguanide 185 mg/kg, after 6 weeks of administration, P<0.05)?
A: significantly higher

Q: And the “diet and water consumption compared with high glucose model group” value (diabetic mice [2])?
A: significantly reduced

Q: What about the “fasting blood sugar compared with high glucose group” value (diabetic mice [3]; after three weeks of administration, P<0.05) of the same molecule?
A: significantly different

Q: What about the “blood glucose inhibition rate” value (diabetic mice [3]; at the end of the administration (6 weeks)) of the same molecule?
A: 46.9%
